Laboratory results reported in patent US20220202783A1, “Use Of ADAM9 Inhibitor As Immunomodulator” (China Medical University, priority 2019, published 2022).

Columns and labels:
TC1-WT lung cancer cells = assay: subcutaneous lung tumor mouse model; format: in vivo, C57BL/6 mice; conditions: 10 mg/kg subcutaneous injection once a day, Day 15 to Day 24, vs DMSO control
Description: In order to further evaluate whether the treatment of ADAM9 inhibitors will give the same results as the ADAM9 gene knockout, TC1-WT lung cancer cells were injected subcutaneously into C57BL/6 mice with normal immunity to establish a subcutaneous lung tumor mouse model, and the ADAM9 inhibitor (the compound SW1, 10 mg/kg) was treated by subcutaneous injection. From Day 15 to Day 24, the compound SW1 was injected once a day for […]. The tumor volume was observed on Day 12, Day 20 and Day 27, respectively. […] The control group was injected with DMSO as a control for the treatment of the ADAM9 inhibitor.

[1] = test system: CDCP1 in Bm7 lung cancer cells; assay: Western blot of ADAM9 and CDCP1 expression in Bm7 cells; format: cell-based; conditions: anchorage-free culture
Description: (§1) Please refer to FIG. 1A, FIG. 1B and Table 2, which show the analysis results of the compound of Formula (I) inhibiting ADAM9 activity. In FIG. 1A, Bm7 lung cancer cells were treated with the derivatives of the compound 6X-0310, and then cultured under anchorage-free culture condition. The expressions of ADAM9 and CDCP1 in Bm7 lung cancer cells were detected by Western blot, in which EF1α is an internal control, and mock represents Bm7 lung cancer cells without treatment. […] In the experiment, the compounds of Formula (I) of Example 1 to Example 32 were further performed cytotoxicity assay to measure the IC50 value of the compounds of Formula (I) of the present disclosure in lung cancer cell lines.

[2] = test system: human esophageal cancer cells CE146T; assay: cytokine RNA expression by RT-qPCR, CE146T; format: cell-based; conditions: 5 μM, 24 hours
Description: We further analyzed whether the treatment of the ADAM9 inhibitor can stimulate tumor cells to secrete cytokines to activate the anti-tumor immunity of the ADAM9 inhibitor. In the experiment, human colon cancer cells SW620 and human pancreatic cancer cells PANC-1 were treated with 12.5 μM of the compound SW1, and human esophageal cancer cells C[…] were treated with 5 μM of the compound SW1. After 24 hours, the cells were collected and the RNA expression levels of CXCL10, CXCL11, CXC3CL1 and IFNB were detected by RT-qPCR. CXCL10, CXCL11 and […] are cytokines that promote the immune response of CD8^+ T cells, and IFNB is a cytokine with anti-cancer effects. Please refer to FIGS. 10A, 10B and 10C, which show the analysis results of the ADAM9 inhibitor stimulated tumor cells to secrete cytokines.

PE10 WBC = assay: cytotoxicity assay in PE10 WBC; format: cell-based; set-up: key to effect of inhibiting tumor cell growth: “+” represents that the compound has the effect of inhibiting tumor cell growth
[3] = test system: breast cancer brain metastatic cell line-MDA-231 brm; assay: anoikis in anchorage-free culture, MDA-231brm; format: cell-based; conditions: read-out: IC50 value for anoikis (anchorage-free induced apoptosis)
Description: (§2) To ensure the compound SW1 and the compound SW2 in blocking anoikis-resistance of cancer cells, the IC50 value (unit is μM) of the compound SW1 and the compound SW2 for anoikis (anchorage-free induced apoptosis) in lung cancer brain metastatic cell line-Bm7brmx2, breast cancer brain metastatic cell line-MDA-231 brm and leukocytes in anchorage-free culture conditions were determined.

[4] = test system: breast cancer cells (231-brm); assay: cytotoxicity assay in 231-brm cells; format: cell-based; set-up: key to effect of inhibiting tumor cell growth: “+” represents that the compound has the effect of inhibiting tumor cell growth
Bm7 lung cancer cells = assay: migration inhibition assay; format: cell-based; conditions: 25 μM, control Bm7 lung cancer cells (shGFP)
Description: To further evaluate the specificity of the compound SW1 and the compound SW2, control Bm7 lung cancer cells (treated with shGFP) and ADAM9 knockout (KO) Bm7 lung cancer cells (treated with shADAM9) were treated with 25 μM of the compound SW1 or the compound SW2, respectively, and then performed a migration inhibition assay.

[5] = test system: TC1 subcutaneous lung tumor; assay: co-treatment of ADAM9 inhibitor and checkpoint inhibitor, CD8+ T cells to TReg ratio in tumors; format: in vivo, mice; conditions: co-treated with anti-PDL1 antibody; vs vehicle, SW1 alone or anti-PDL1 antibody alone
Description: To further analyze whether the ADAM9 inhibitor and the checkpoint inhibitor have a synergistic effect, in the experiment, TC1 subcutaneous lung tumor mice were treated alone with the ADAM9 inhibitor (the compound SW1), the checkpoint inhibitor (anti-PDL1 antibody) or co-treated with the ADAM9 inhibitor (the compound SW1) and the checkpoint inhibitor (anti-PDL1 antibody), and the ratio of CD8^+ T cells and regulatory T cells (TReg) in tumors of TC1 subcutaneous lung tumor mice was analyzed. The experiment also included a control group treated with vehicle (DMSO).

[6] = test system: lung cancer brain metastatic cell line-Bm7brmx2; assay: anoikis in anchorage-free culture, Bm7brmx2; format: cell-based; conditions: read-out: IC50 value for anoikis (anchorage-free induced apoptosis)
Description: as §2

[7] = test system: lung cancer cells (Bm7brmx2); assay: cytotoxicity assay in Bm7brmx2 cells; format: cell-based; set-up: key to effect of inhibiting tumor cell growth: “+” represents that the compound has the effect of inhibiting tumor cell growth
Description: as §1

PC-080 = assay: cytotoxicity on pancreatic cancer cells, PC-080; format: cell-based; conditions: Pancreatic cancer cell
Description: (§3) In addition, the IC50 values (unit is μM) of the compound SW1 and the compound SW2 on pancreatic cancer cells were measured in the experiment.

[8] = test system: 4T1-luc breast cancer cells; assay: syngeneic orthotopic breast tumor animal model, immune cell infiltration; format: in vivo, BALB/c mice; conditions: 10 mg/kg subcutaneous
Source text: Please further refer to FIG. 7B, which is a flow chart of the ADAM9 inhibitor used in the treatment of a syngeneic orthotopic breast tumor animal model. In the experiment, 4T1-luc breast cancer cells (5×10^4) were transplanted into the breast fat pads of BALB/c mice to establish the syngeneic orthotopic breast tumor animal model. The IVIS imaging system is used for detection, and the tumor size is represented by the luminous flux of the IVIS image. After tumor images were detected on Day 15, the ADAM9 inhibitor (the compound SW1, 10 mg/kg) was pretreated by subcutaneous injection on Day 16, Day 18, and Day 20. After the tumor was surgically removed on Day 21, the ADAM9 inhibitor (the compound SW1, 10 mg/kg) was continuously treated on Day 23, Day 25, Day 27, Day 29 and Day 31. The surgically resected syngeneic orthotopic breast tumor animal model tumors were stained by immunohistochemistry. In the experiment, a control group was injected with DMSO as a control for the treatment of the ADAM9 inhibitor. Please further refer to FIGS. 8A and 8B, which show the analysis results of the effect of the ADAM9 inhibitor on immune cell infiltration.

MiaPaCa = assay: cytotoxicity on pancreatic cancer cells, MiaPaCa; format: cell-based; conditions: Homo sapiens, MIA PaCa-2
Description: as §3

Row | IC50 [3] [µM] | IC50 [6] [µM] | SMILES | tumor growth (tumor volume) (TC1-WT lung cancer cells) | expression of CDCP1 [1] | RNA expression levels of CXCL10, CXCL11, CXC3CL1 and IFNB [2] | IC50 (PE10 WBC) [mM] | effect of inhibiting tumor cell growth (PE10 WBC) | IC50 [4] [µM] | effect of inhibiting tumor cell growth [4] | migration ability (Bm7 lung cancer cells) | ratio of CD8+ T cells to regulatory T cells (TReg) in tumors [5] | IC50 [7] [µM] | effect of inhibiting tumor cell growth [7] | IC50 (PC-080) [µM] | number of infiltrating neutrophils ([8]; 4T1 primary breast tumors and lung metastatic breast tumors) | number of infiltrating T cells ([8]; primary 4T1 breast tumors and lung metastatic breast tumors) | IC50 (MiaPaCa) [µM]
1 | 4.5 | 20 | O=C1c2ccccc2C(=O)N1CCc1csc(Nc2nc(CCN3C(=O)c4ccccc4C3=O)cs2)n1 [SW1] | reduces tumor growth | reduce the expression of CDCP1 | increase the expressions of CXCL10, CXCL11, CXC3CL1 and IFNB | 14.5 | + | 4.5 | + | significantly reduce the migration ability | increased significantly | 71.6 | + | 446 | greatly reduced | increased | –
2 | 7.5 | 27 | O=C(Nc1nc(CCN2C(=O)c3ccccc3C2=O)cs1)c1cc2ccccc2s1 [SW2] | – | reduce the expression of CDCP1 | – | 0.0764 | + | 7.55 | + | significantly reduce the migration ability | – | 52.7 | + | 89.6 | – | – | 8.5
